Results on 4 compounds are retold here after ChEMBL document CHEMBL1153078, “Design and synthesis of acetamido tri- and tetra-hydroxyazepanes: potent and selective beta-N-acetylhexosaminidase inhibitors” (Bioorg Med Chem, 2009).

Test [1] in a line: Inhibition of bovine liver beta-N-acetylglucosaminidase. Also on record: species or system Bos taurus.
The subject of the next test is Prunus dulcis. Kind of test: Inhibition of almond beta-glucosidase at 1 mM.
The next test concerns Oryza sativa. Briefly: Inhibition of rice alpha-glucosidase at 1 mM.
Test [2] relates to Canavalia ensiformis. Kind of test: Inhibition of jack bean beta-N-acetylglucosaminidase at 1 mM.
Test [3] addresses Alpha-galactosidase (Coffea arabica) (UniProt Q42656). Kind of test: Inhibition of coffee bean alpha-galactosidase at 1 mM.
The subject of test [4] is Canavalia ensiformis. Briefly: Inhibition of jack bean alpha-mannosidase at 1 mM.
In test [5] the target is T1, Beta-galactosidase (Aspergillus oryzae) (UniProt Q2U7N3).
T1 sequence (whole entry): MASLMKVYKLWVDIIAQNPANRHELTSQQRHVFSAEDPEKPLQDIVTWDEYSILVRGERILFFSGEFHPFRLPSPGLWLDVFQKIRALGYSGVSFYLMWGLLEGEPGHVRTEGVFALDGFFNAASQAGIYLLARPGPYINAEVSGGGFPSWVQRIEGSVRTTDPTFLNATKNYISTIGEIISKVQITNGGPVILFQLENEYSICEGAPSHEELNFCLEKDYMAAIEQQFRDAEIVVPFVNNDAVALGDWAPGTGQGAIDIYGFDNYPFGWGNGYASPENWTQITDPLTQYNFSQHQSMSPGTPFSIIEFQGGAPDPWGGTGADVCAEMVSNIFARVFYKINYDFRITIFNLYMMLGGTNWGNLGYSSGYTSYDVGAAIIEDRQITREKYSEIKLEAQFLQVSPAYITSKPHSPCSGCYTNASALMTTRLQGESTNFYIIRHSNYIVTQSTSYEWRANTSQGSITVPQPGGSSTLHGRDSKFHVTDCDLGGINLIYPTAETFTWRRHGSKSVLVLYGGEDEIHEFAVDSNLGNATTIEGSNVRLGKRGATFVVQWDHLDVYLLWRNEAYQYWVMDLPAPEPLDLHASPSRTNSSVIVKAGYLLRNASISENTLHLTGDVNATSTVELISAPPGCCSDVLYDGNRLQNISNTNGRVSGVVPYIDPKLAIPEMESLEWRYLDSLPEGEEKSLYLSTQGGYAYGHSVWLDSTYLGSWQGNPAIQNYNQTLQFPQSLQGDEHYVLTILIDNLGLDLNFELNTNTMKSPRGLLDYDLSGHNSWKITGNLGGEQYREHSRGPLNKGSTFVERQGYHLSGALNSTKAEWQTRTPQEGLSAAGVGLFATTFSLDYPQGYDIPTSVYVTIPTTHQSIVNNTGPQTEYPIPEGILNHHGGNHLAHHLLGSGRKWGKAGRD
Briefly: Inhibition of Aspergillus oryzea beta-galactosidase at 1 mM.

Test [6] concerns the target T2, Tissue alpha-L-fucosidase (Bos taurus) (UniProt Q2KIM0).
T2 sequence (whole entry): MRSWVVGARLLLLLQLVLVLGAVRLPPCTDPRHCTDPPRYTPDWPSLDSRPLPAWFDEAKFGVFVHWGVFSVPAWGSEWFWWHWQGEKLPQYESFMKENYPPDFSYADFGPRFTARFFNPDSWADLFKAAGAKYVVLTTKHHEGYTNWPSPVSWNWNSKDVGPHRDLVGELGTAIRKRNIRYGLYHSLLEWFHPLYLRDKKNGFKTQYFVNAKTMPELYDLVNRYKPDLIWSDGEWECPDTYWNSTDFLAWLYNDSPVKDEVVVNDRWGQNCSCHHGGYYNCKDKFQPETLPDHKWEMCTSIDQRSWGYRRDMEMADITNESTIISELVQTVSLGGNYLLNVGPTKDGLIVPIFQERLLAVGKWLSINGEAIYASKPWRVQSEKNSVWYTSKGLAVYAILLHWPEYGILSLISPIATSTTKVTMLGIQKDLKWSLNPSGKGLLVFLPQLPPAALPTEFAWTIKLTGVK
Kind of test: Inhibition of bovine epididymis alpha-L-fucosidase at 1 mM.

In another test the test system is Aspergillus oryzae. Kind of test: Inhibition of Aspergillus oryzea beta-xylosidase at 1 mM.
The test system of the next test is Helix pomatia. Kind of test: Inhibition of snail beta-mannosidase at 1 mM.
For test [7], the target named is Beta-galactosidase (Escherichia coli) (UniProt Q8VNN2). Kind of test: Inhibition of Escherichia coli beta-galactosidase at 1 mM.
Beta-galactosidase (Escherichia coli), sequence (Q8VNN2 whole entry, looked up): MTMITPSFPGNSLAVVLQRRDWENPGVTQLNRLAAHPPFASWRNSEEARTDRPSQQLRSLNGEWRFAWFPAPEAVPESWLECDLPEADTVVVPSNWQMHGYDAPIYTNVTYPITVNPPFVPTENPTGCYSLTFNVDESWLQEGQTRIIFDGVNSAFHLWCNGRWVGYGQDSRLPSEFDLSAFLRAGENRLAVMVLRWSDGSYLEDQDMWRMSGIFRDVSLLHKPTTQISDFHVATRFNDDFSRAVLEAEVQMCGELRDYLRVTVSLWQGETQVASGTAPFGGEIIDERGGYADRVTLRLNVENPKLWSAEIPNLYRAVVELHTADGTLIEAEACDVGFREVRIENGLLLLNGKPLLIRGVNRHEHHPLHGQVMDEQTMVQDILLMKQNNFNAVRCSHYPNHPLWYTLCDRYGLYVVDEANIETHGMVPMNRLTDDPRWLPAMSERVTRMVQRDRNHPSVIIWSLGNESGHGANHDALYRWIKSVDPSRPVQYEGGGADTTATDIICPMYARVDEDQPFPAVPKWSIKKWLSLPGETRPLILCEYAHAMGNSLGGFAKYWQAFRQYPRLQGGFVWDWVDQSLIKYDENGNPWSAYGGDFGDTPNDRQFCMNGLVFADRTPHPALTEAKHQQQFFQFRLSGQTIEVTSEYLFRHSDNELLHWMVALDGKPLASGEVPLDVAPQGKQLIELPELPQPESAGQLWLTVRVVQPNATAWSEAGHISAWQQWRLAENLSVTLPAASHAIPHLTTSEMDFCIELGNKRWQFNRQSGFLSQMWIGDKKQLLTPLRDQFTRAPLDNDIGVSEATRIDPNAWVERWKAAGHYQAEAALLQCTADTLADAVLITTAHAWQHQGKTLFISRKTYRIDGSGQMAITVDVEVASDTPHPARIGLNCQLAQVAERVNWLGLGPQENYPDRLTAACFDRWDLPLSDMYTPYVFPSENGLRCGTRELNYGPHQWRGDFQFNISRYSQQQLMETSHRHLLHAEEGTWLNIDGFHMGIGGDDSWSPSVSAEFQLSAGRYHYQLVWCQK
Test [8] is filed under the species Bos taurus. Briefly: Inhibition of bovine liver beta-N-acetylglucosaminidase at 1 mM.
The test system of another test is Aspergillus niger. Kind of test: Inhibition of Aspergillus niger amyloglucosidase at 1 mM.
Another test concerns Saccharomyces cerevisiae. Kind of test: Inhibition of yeast alpha-glucosidase at 1 mM.
A short description of test [9]: Inhibition of jack bean beta-N-acetylglucosaminidase. Also on record: species or system Canavalia ensiformis.
The subject of test [10] is Canavalia ensiformis. Briefly: Inhibition of jack bean beta-N-acetylglucosaminidase at 240 uM.
The species entered for test [11] is Bos taurus. Kind of test: Inhibition of bovine liver beta-N-acetylglucosaminidase at 240 uM.

Broadly, the Ki is a dissociation constant, usually derived from enzyme kinetics or from competition with a known ligand. Broadly, the inhibition is the share of the control response that was lost under treatment.

Activity calls are given as the source filed them. The calls are words filed in the database; no cut-off is given here.

Alpha-galactosidase (Coffea arabica), sequence (Q42656 16-378 limits assumed): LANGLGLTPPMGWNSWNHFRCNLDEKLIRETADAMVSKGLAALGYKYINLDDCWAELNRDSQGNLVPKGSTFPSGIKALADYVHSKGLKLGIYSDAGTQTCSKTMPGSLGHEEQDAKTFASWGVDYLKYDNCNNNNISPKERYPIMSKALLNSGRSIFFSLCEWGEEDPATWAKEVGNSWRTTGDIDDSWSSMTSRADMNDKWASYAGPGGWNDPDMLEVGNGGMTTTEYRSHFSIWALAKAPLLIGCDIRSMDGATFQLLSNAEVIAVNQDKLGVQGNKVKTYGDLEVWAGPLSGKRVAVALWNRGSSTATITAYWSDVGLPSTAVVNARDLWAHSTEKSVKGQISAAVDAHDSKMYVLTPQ

Regarding `CC(=O)N[C@@H]1[C@@H](O)[C@H](O)[C@@H](CO)NC[C@H]1O`, the values for the Ki in test [1] and in test [9] were 0.6 µM and 0.5 µM, respectively. Besides, the inhibition entry (with Prunus dulcis; in the test on Oryza sativa; in [3]; in test [5]; in test [6]; in the test on Aspergillus oryzae) was “inactive” each time. The inhibition result (in the test with Helix pomatia; in test [7]; with Aspergillus niger; in the test with Saccharomyces cerevisiae) was “inactive” throughout. The inhibition in the test on Canavalia ensiformis [2] was 98%; in the test on Canavalia ensiformis [4], 25%; in the test filed under Bos taurus [8], 99%.

`CC(=O)N[C@H]1CN[C@H](CO)[C@@H](O)[C@H](O)[C@@H]1O`: the inhibition result (in the test with Prunus dulcis; in the test on Oryza sativa; in test [3]; in the test on Canavalia ensiformis [4]; in test [5]; in [6]) was “inactive” each time. Further, the inhibition result (in the test with Aspergillus oryzae; with Helix pomatia; in [7]; in the test with Aspergillus niger; with Saccharomyces cerevisiae) was “inactive” each time. The inhibition with Canavalia ensiformis [2] was determined as 88%; in the test listed under Bos taurus [8], 74%. The affinity in test [9] corresponds to a Ki of 30 µM.

On to `CC(=O)N[C@@H]1CNC[C@H](O)[C@@H](O)[C@@H]1O`, for which the inhibition result (with Prunus dulcis; in the test with Oryza sativa; in test [3]; with Canavalia ensiformis [4]; in test [5]; in test [6]) was “inactive” in each case. Also, the inhibition result (in the test on Aspergillus oryzae; with Helix pomatia; in test [7]; in the test on Aspergillus niger; in the test with Saccharomyces cerevisiae) was “inactive” in each case. For the same compound, the inhibition in the test on Canavalia ensiformis [2] came to 93%; in the test filed under Bos taurus [8], 68%.

For the compound `CC(=O)N[C@H]1CNC[C@H](O)[C@@H](O)[C@@H]1O`, the inhibition with Canavalia ensiformis [10] was found to be 22%; in the test on Canavalia ensiformis [2] it was 99%; in test [6] it was 28%; in the test filed under Bos taurus [8], 99%; with Aspergillus niger, 19%; in the test filed under Bos taurus [11], 22%. Moreover, the Ki stood at 0.7 µM in test [1] and 0.4 µM in [9]. For the same compound, the inhibition entry (in the test with Prunus dulcis; in the test on Oryza sativa; in test [3]; in the test with Canavalia ensiformis [4]; in [5]; with Aspergillus oryzae) was “inactive” in each case. The inhibition result (in the test on Helix pomatia; in test [7]; in the test on Saccharomyces cerevisiae) was “inactive” each time.
